Measurements reported in patent US20120029054A1, “RNA Interference Mediated Inhibition of GATA Binding Protein 3 (GATA3) Gene Expression Using Short Intefering Nucleic Acid (siNA)” (Merck Sharp & Dohme Corp., priority 2009, published 2012).

Columns and labels:
Assay type in all cases: cell-based
GATA3 mRNA [1] = experiment: GATA3 mRNA knock-down (Taqman qRT-PCR) after RNAiMax transfection of human MCF7 cells; screen and IC50 dose response; conditions: for % KD Human: 10 nM siNA, 24 hrs; for % KD GATA3 mRNA at 10 nM: Table 4, MCF7 cells; for % KD GATA3 10 nM: Table 5, MCF7 cells
Outline: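 MCF7 cells (5000/well, 24 h) transfected with siNA–RNAiMax complexes at 10 nM final siNA for 24 h without media change. GATA3 mRNA measured by TaqMan qRT-PCR, alongside β-actin and GAPDH probes. % knock-down by comparative Ct (2^−ΔΔCt) relative to non-targeting control siNA.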

human GAPDH mRNA = experiment: GAPDH specificity screen in human MCF7 cells (β-Actin normalised qRT-PCR); conditions: normalised to β-Actin, three experiments, mean ± S.D.
Protocol: A series of probes and primers were used to detect the various mRNA transcripts of the genes of β-Actin (human cell line only), and of GATA3 and GAPDH in mouse and human cell lines. All Taqman probes and primers for the experiments here-in described were supplied as pre-validated sets by Applied Biosystems, Inc. (see Table 2).
The assays were performed on an ABI 7900 instrument, according to the manufacturer's instructions. A TaqMan Gene Expression Master Mix (provided in the Cells-to-CT™, Applied Biosystems, Cat #4399002) was used. The PCR reactions were carried out at 50° C. for 2 min, 95° C. for 20 min followed by 40 cycles at 95° C. for 15 secs and 60° C. for 1 min.
The expression level of the gene of interest and % knock-down was calculated using Comparative Ct method: […]
These same three siNAs were tested for specificity in the human MCF7 cell line at 10 nM concentration to determine the effect of the GATA3 siNAs on the mRNA transcript of human GAPDH. In this assay, the samples from the primary screen, discussed above, O-Actin, a ubiquitously expressed ‘house-keeping’ gene, served as an endogenous control for normalization of the data.

GATA3 mRNA [2] = experiment: GATA3 mRNA knock-down (Taqman qRT-PCR) after RNAiMax transfection of mouse RAG cells; conditions: 10 nM siNA, 24 hrs, average of 2 experiments
Outline: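 Murine RAG cells, 5000/well, transfected 24 h after plating with siNA (10 nM final) complexed with RNAiMax, harvested after 24 h. GATA3 mRNA quantified by TaqMan qRT-PCR with GAPDH reference; % knock-down by comparative Ct (2^−ΔΔCt) versus non-targeting control siNA.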

[3] = mean ± S.D., * Hs00231122_m1 Taqman Assay
[4] = mean ± S.D., ** Hs00922328_m1 Taqman Assay

For “30263-DC: GATA3 siNA duplex, site 817: sense B cGccucuGcuucAuGGAuc TTB (SEQ 79), antisense GAUccAuGAAGcAGAGGcGUU (SEQ 80) (sense CGCCUCUGCUUCAUGGAUCTT; antisense GAUCCAUGAAGCAGAGGCGUU; chemistry not fully specified)”, the “% KD Human” value (GATA3 mRNA [1]; MCF7 cells, * Hs00231122_m1 Taqman Assay) was 74 ± 5* %, the “% KD Human” value (GATA3 mRNA [1]; MCF7 cells, ** Hs00922328_m1 Taqman Assay) was 60 ± 10** % and the IC50 (GATA3 mRNA [1]; MCF7 cells, mean ± S.D.) was 0.104 ± 0.041 nM. The “% KD GATA3 mRNA at 10 nM” value (GATA3 mRNA [1]; [3]) was 74 ± 5* %, the “% KD GATA3 mRNA at 10 nM” value (GATA3 mRNA [1]; [4]) was 60 ± 10** % and the “% KD GATA3 10 nM” value (GATA3 mRNA [1]; [3]) was 74 ± 5* %. The “% KD GATA3 10 nM” value (GATA3 mRNA [1]; [4]) was 60 ± 10** %, the “% KD GAPDH 10 nM” value (human GAPDH mRNA) was 11 ± 4% and the “% KD Mouse” value (GATA3 mRNA [2]) was 9 ± 13%.
